Reference: patent US20050203013A1, “Methods for inhibiting vascular permeability” (priority 2002, published 2005)

Legend:
[1] = system: HMVEC-d cells; experiment: Cell migration assay (modified Boyden chamber); type: cell-based, Human
Protocol: The motility response of HMVEC-d cells was assayed using a modified Boyden chamber. Cells were plated in T75-cm^2 flasks at 0.5×10^6 cells per flask and allowed to grow for 48 hours (˜70% confluent) prior to the migration assay. To facilitate cell adhesion, the upper membrane of a transwell (8 μm pore; Costar) was coated with fibronectin (10 μg/ml; Becton Dickinson) overnight at 4° C. Coated membranes were rinsed with PBS and allowed to air dry immediately before use. Cells were detached by trypsinization, treated with trypsinization neutralization solution (Clonetics), and resuspended at a final concentration of […] in serum-free EBM-2 containing 0.1% BSA or free or conjugated TNP470 at equivalent concentrations of 1 ng/ml. Cells (50,000 in 100 μl) were added to the upper chamber of the transwell. Following a 2 hours incubation, EBM-2 or EBM-2 supplemented with VPF/VEGF (5 ng/ml) was added to the lower chamber and cells were allowed to migrate toward the bottom chamber for 4 hours in a humidified incubator containing 5% CO2. […] The number of migrated cells was measured using microscopy (three fields from each membrane were captured using a 10× objective), and images were captured with a CCD camera using SPOT software. Total migration per membrane was quantified from the captured images using Scion Image software (National Institutes of Health). […]

[2] = system: vesiculo-vacuolar organelles and inter-endothelial junctions; experiment: Electron microscopy of skin venules with ferritin tracer; type: in vivo, SCID mice; conditions: uninjected skin or skin injected with buffer
Protocol: SCID mice were treated for three days with TNP-470 (30 mg/kg) or saline, following which anionic Ferritin tracer was injected i.v. into mice and 50 μl of human VEGF165 (1 ng/μl), or 50 μl of PBS were injected intradermally into pre-shaved flank skin. After 15 min, animals were euthanized by cervical dislocation. Skin test and control sites were excised and fixed by immersion for 4 hours in freshly prepared 2.0% paraformaldehyde-2.5% glutaraldehyde-0.025% calcium chloride in 0.1 M sodium cacodylate buffer, pH 7.4. Tissues were postfixed for 2 h in 1.5% sym-collidine-buffered osmium tetroxide, stained en bloc with uranyl acetate, dehydrated in a graded series of alcohols, and embedded in Spurr resin as previously described (Dvorak et al., 1996; Feng et al., 1996). Thin sections were then cut, collected on carbon-Formvar-coated single slot grids, and viewed in an electron microscope (CM10; Philips, Eindhoven, The Netherlands).

[3] = system: VEGFR-2; experiment: VEGFR-2 phosphorylation in HMVEC-d; type: cell-based, Human; conditions: 5 ng/ml for 2 hours
Protocol: Serum-starved (0.1% FBS in EBM-2 media for 24 hours) HMVEC-d or HUVEC were treated with 5 ng/ml TNP-470 and HPMA copolymer-TNP-470 at 37° C. for 2 hours, and then stimulated with 10 ng/ml of VEGF for 5 minutes. Stimulation was stopped by adding cold PBS. […] After washing the beads with precipitation buffer, immunoprecipitates were resuspended in 2× SDS sample buffer for Western blot analysis with an antibody against phosphorylated tyrosine (pTyr).

[4] = system: Bovine adrenal capillary endothelial cells; experiment: BCE proliferation assay; type: cell-based; conditions: challenged with bFGF, 72 h
Protocol: Bovine adrenal capillary endothelial cells were seeded on gelatinized plates (15,000/well). Following 24 h incubation, cells were challenged with free and conjugated TNP-470, and bFGF (1 ng/ml) was added to the medium. Cells were counted after 72 h.

[5] = system: MAPK; experiment: Phosphorylation of MAPK; type: cell-based, Human; conditions: HMVEC-d
Protocol: Serum-starved HMVEC-d were treated with 5 ng/ml TNP-470 at 37° C. for 2 hours, and then stimulated with 10 ng/ml of VEGF for 5 minutes. Stimulation was stopped by adding cold PBS. Cells were lysed with cold radioimmune precipitation buffer. Cellular extracts (20 μg) were immunoblotted with an antibody against phosphorylated MAPK (p-MAPK) (Cell Signaling Technology Inc.). The blot was stripped and reprobed with an antibody against MAPK to confirm equal protein loading.

[6] = system: VEGF-induced skin permeability; experiment: Modified Miles assay with VEGF dose response; type: in vivo, C57 mice; conditions: 30 mg/kg/d s.c. for 3 days, intradermal VEGF
Text: TNP-470, HPMA copolymer-TNP-470 and angiostatin all inhibited Evan's blue extravasation into A2058 melanoma (P<0.03 versus control), murine Lewis lung carcinoma (P<0.05), MCF-7 breast carcinoma (P<0.04), MDA-MB-231 breast carcinoma (P<0.05) and BXPC3 pancreatic adenocarcinoma (P<0.04) by 40-90% compared to control tumors treated with saline (FIG. 16B). […] In order to test the effect of VEGF secreted from the tumor and the ability of TNP-470 to inhibit the permeability induced by such amount of VEGF, a modified Miles assay using a dose response of VEGF was used. Groups of 8 week old C57 mice were treated with TNP-470 (30 mg/kg/d s.c. for 3 days) or with saline. Then we injected 100 μl 1% Evan's Blue i.v. and after 10 min injected VEGF intradermally at different concentrations. We collected skin punch biopsies and extracted dye with formamide at RT over 5 days and read the extracts at 620 nm (FIG. 16C).

CO[C@@H]1[C@H](OC(=O)NC(=O)CCl)CC[C@]2(CO2)[C@H]1[C@@]1(C)O[C@@H]1CC=C(C)C [TNP-470]
inhibition at 0.001 µg/mL ([1]; Homo sapiens, 1 ng/ml, 2 hours pretreatment, 4 hours migration, read-out: inhibition of chemotactic migration response to VPF/VEGF): 68%
inhibition of basal migration ([1]; absence of VPF/VEGF): 70%
extravasation of circulating ferritin via VVOs [2]: reduced
VPF/VEGF-induced phosphorylation of VEGFR-2 [3]: significantly reduced
BCE cell growth [4]: inhibited
VPF/VEGF-induced MAPK phosphorylation [5]: inhibited
VEGF dose up to which permeability was inhibited [6]: up to 25 ng
